Among the data in ChEMBL document CHEMBL4431356, “Synthesis and activity of benzimidazole-1,3-dioxide inhibitors of separase” (Bioorg Med Chem Lett, 2016) are IC50 values, retold here.

The structures appear in SMILES notation. Where only a bound is given, the exact number is not on record here.

The target of assay [1] is T1, Separin (Homo sapiens, UniProt Q14674). Kind of assay: Inhibition of epitope-tagged separase (unknown origin) using Rad21-MCA as substrate preincubated for 1 hr followed by substrate addition measured after 3 hrs by fluorescence assay.
T1 sequence (Q14674 whole entry): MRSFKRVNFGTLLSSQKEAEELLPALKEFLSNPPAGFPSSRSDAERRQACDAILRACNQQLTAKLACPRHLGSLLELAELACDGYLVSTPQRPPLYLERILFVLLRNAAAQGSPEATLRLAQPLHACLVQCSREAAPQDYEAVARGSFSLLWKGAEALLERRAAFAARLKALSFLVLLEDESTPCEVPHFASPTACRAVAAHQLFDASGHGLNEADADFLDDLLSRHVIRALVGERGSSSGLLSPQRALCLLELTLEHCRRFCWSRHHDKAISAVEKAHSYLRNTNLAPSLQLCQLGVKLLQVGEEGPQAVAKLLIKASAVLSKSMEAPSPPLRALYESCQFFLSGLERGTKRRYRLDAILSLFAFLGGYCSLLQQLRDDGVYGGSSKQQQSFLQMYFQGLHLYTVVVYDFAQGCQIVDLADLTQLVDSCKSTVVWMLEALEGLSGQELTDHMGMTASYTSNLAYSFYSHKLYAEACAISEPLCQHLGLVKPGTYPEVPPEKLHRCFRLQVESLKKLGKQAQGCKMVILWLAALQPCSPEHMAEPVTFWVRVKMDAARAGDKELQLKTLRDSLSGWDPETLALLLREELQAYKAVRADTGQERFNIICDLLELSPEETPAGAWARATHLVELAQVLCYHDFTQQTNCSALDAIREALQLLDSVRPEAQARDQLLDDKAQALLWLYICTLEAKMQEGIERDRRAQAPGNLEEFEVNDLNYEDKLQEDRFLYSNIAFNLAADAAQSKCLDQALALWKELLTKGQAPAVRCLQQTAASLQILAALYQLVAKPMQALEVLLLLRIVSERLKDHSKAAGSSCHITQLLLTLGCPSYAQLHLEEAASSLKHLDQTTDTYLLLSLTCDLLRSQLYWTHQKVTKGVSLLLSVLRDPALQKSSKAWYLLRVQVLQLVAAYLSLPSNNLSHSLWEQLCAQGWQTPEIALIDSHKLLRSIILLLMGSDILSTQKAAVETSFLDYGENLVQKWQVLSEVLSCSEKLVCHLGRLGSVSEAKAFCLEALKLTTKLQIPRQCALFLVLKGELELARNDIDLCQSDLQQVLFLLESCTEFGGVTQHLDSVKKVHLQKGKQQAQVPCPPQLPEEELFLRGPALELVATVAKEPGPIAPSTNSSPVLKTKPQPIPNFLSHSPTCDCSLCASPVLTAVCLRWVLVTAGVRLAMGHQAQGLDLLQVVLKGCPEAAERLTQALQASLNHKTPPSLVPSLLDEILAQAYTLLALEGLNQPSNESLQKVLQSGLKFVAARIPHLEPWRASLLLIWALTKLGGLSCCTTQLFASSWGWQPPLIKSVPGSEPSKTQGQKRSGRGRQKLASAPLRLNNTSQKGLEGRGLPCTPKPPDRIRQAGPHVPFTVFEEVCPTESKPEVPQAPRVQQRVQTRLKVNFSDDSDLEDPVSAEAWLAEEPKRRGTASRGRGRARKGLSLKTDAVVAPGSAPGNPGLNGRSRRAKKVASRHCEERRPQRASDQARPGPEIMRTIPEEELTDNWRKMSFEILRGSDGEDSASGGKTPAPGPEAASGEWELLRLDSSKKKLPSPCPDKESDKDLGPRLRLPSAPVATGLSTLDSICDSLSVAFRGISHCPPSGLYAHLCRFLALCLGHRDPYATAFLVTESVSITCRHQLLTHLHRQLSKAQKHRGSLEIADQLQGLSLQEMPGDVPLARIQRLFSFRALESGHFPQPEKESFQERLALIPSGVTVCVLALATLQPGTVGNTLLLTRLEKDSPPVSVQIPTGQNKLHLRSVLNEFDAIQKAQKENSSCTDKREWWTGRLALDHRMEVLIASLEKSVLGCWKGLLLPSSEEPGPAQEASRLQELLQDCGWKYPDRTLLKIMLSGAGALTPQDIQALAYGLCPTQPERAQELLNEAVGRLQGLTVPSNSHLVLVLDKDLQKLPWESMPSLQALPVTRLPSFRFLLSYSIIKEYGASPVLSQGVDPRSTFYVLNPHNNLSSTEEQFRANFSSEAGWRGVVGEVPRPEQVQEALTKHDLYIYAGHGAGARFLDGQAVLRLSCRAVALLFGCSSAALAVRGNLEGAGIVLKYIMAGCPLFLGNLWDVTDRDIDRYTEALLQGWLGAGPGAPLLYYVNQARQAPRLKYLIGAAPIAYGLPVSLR
In assay [2] the target is T1, Separin. Kind of assay: Inhibition of human ZZ TEV4-tagged separase expressed in human 293T cells using (Rad21)2-Rh110 as substrate preincubated for 1 hr followed by substrate addition measured after 3 hrs by fluorescence assay.

What is called IC50 is the midpoint of a concentration-inhibition curve. Lower therefore signals greater potency. For `O=[N+]([O-])c1ccc2c(c1)=[N+]([O-])C1(CCCCC1)[N+]=2[O-]`, the IC50 on Separin [1] was 16.2 µM.
On to `CC1(C)[N+]([O-])=c2ccc(Br)cc2=[N+]1[O-]`, for which the IC50 at Separin [1] is greater than 100 µM.
Take `CC1(C)[N+]([O-])=c2ccc(C(F)(F)F)cc2=[N+]1[O-]`: the IC50 against Separin [1] is greater than 100 µM.
Same read-out and setting: next, `CCOc1ccc2c(c1)=[N+]([O-])C(C)(C)[N+]=2[O-]`: greater than 100 µM; `CC1(C)[N+]([O-])=c2ccc(C(=O)O)cc2=[N+]1[O-]`: greater than 100 µM.
Same read-out and setting: next, `O=[N+]([O-])c1ccc2nonc2c1`: greater than 100 µM; `CCOc1cc2c(cc1F)=[N+]([O-])C(C)(C)[N+]=2[O-]`: greater than 100 µM.
Consider `CC1(C)[N+]([O-])=c2ccc([N+](=O)[O-])cc2=[N+]1[O-]`, for which the IC50 came out at 15 µM against Separin [2] and 17.8 µM on Separin [1].
As to `COC(=O)c1ccc2c(c1)[n+]([O-])c(C)c(C)[n+]2[O-]`, the IC50 at Separin [1] was greater than 100 µM.
On the same count and under the same terms, next, `COC(=O)c1ccc2c(c1)=[N+]([O-])C(C)(C)[N+]=2[O-]`: greater than 100 µM.
The same measure, in the same setting: next, `CC1(C)[N+]([O-])=c2ccc(-c3ccccc3)cc2=[N+]1[O-]`: greater than 100 µM; `CC1(C)[N+]([O-])=c2ccc(F)cc2=[N+]1[O-]`: greater than 100 µM; `CCCCNc1ccc2c(c1)=[N+]([O-])C(C)(C)[N+]=2[O-]`: greater than 100 µM.
